Experimental data: the supplement of paper PMC10883282
± gives the standard deviation of the averaged measurements.

Tests used:
A204 [1] = test: relative viability vs DMSO control (72 h) (fraction); higher = more viable cells
Method in brief: (§1)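 ATPLite readings, expressed as percent growth and averaged over up to triplicate wells, provided relative viability. Before reading, sarcoma cell lines seeded in 384-well plates to reach 80–90% confluence received 2.5 µl of serially diluted compound after 24 h, from source plates of 10 mM to 0.0002 mM. Plates were held 72 h at 37 °C, 5% CO2, with 0.1% DMSO as vehicle and a 5 µM positive control. The data were rescaled to 1 for full and 0 for none.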

HS729 [2] = test: as above
Method in brief: as §1

KHOS-NP [3] = test: as above
Method in brief: as §1

SW684 [4] = test: as above
Method in brief: as §1

SW872 [5] = test: as above
Method in brief: as §1

A204 [6] = test: standardised AUC of viability dose-response curve (72 h) (fraction (0-1)); higher = less growth inhibition (more resistant)
Method in brief: (§2)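 In 384-well plates, sarcoma cell lines were exposed for 72 h, in triplicate, to 2.5 µl of a 1:3 compound dilution series whose compound-plate concentrations ran from 10 mM to 0.0002 mM. Four-parameter log-logistic models were fitted per drug and cell line to ATPLite viability, scaled 1 (full) to 0 (none). From these fits, a modified drexplorer computeAUC gave the standardised area under the curve in log-dose space. Here 1 marks no response and 0 full response.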

G401 = test: as above
Method in brief: as §2

HS729 [7] = test: as above
Method in brief: as §2

HT1080 = test: as above
Method in brief: as §2

KHOS-240S = test: as above
Method in brief: as §2

KHOS-NP [8] = test: as above
Method in brief: as §2

MES-SA = test: as above
Method in brief: as §2

RD-ES = test: as above
Method in brief: as §2

RD = test: as above
Method in brief: as §2

SK-ES-1 = test: as above
Method in brief: as §2

SK-LMS-1 = test: as above
Method in brief: as §2

SW1353 = test: as above
Method in brief: as §2

SW684 [9] = test: as above
Method in brief: as §2

SW872 [10] = test: as above
Method in brief: as §2

SW982 = test: as above
Method in brief: as §2

SYO-1 = test: as above
Method in brief: as §2

VA-ES-BJ = test: as above
Method in brief: as §2

CN(C)CCCOc1ccc(-c2ccc3ncc4c(c3c2)n(C2CCOCC2)c(=O)n4C)cn1 [AZD-0156]
relative viability
Conditions	A204 [1]	HS729 [2]	KHOS-NP [3]	SW684 [4]	SW872 [5]
0.00017 µM	1.08 ± 0.043	1 ± 0.026	1.1 ± 0.017	1.16 ± 0.038	1.06 ± 0.031
0.00051 µM	1.1 ± 0.033	1.02 ± 0.03	1.107 ± 0.01	1.17 ± 0.041	1.05 ± 0.056
0.00152 µM	1.07 ± 0.051	1.01 ± 0.019	1.09 ± 0.027	1.17 ± 0.087	1.06 ± 0.053
0.00457 µM	1.1 ± 0.041	0.968 ± 0.026	1.1 ± 0.017	1.19 ± 0.074	1.03 ± 0.055
0.01372 µM	1.04 ± 0.072	0.937 ± 0.068	1.09 ± 0.016	1.13 ± 0.029	0.941 ± 0.032
0.04115 µM	1.01 ± 0.089	0.9191 ± 0.0091	1.088 ± 0.0097	1.16 ± 0.044	0.892 ± 0.048
0.1235 µM	0.919 ± 0.028	0.857 ± 0.031	1.11 ± 0.012	0.994 ± 0.027	0.808 ± 0.029
0.3704 µM	0.84 ± 0.055	0.833 ± 0.028	1.09 ± 0.029	0.963 ± 0.1	0.654 ± 0.02
1.111 µM	0.704 ± 0.025	0.766 ± 0.063	1.03 ± 0.048	0.835 ± 0.029	0.476 ± 0.01
3.333 µM	0.766 ± 0.15	0.758 ± 0.05	1.02 ± 0.099	0.918 ± 0.1	0.398 ± 0.042
10 µM	0.628 ± 0.068	0.519 ± 0.041	0.764 ± 0.022	0.788 ± 0.074	0.26 ± 0.025

Conditions	standardised AUC
A204 [6]	0.854
G401	0.963
HS729 [7]	0.883
HT1080	0.991
KHOS-240S	0.914
KHOS-NP [8]	0.975
MES-SA	0.887
RD	0.921
RD-ES	0.785
SK-ES-1	0.748
SK-LMS-1	0.858
SW684 [9]	0.891
SW872 [10]	0.749
SW982	0.752
SW1353	0.917
SYO-1	0.777
VA-ES-BJ	0.753

COC(=O)c1ccc2c(c1)NC(=O)/C2=C(\Nc1ccc(N(C)C(=O)CN2CCN(C)CC2)cc1)c1ccccc1 [Nintedanib]
relative viability
Conditions	A204 [1]	HS729 [2]	KHOS-NP [3]	SW684 [4]	SW872 [5]
0.00017 µM	1.04 ± 0.049	0.981 ± 0.023	1.06 ± 0.041	1.09 ± 0.068	1.05 ± 0.039
0.00051 µM	1.04 ± 0.013	1 ± 0.041	1.06 ± 0.029	1.11 ± 0.095	1.03 ± 0.046
0.00152 µM	1.02 ± 0.015	1.01 ± 0.03	1.06 ± 0.018	1.15 ± 0.081	1.02 ± 0.052
0.00457 µM	0.997 ± 0.055	0.99 ± 0.066	1.06 ± 0.022	1.12 ± 0.079	1.03 ± 0.029
0.01372 µM	0.831 ± 0.049	1.04 ± 0.074	1.06 ± 0.03	1.13 ± 0.086	1.03 ± 0.025
0.04115 µM	0.566 ± 0.11	0.973 ± 0.041	1.06 ± 0.021	1.17 ± 0.046	1.03 ± 0.042
0.1235 µM	0.434 ± 0.063	0.929 ± 0.062	1.05 ± 0.013	1.13 ± 0.025	1.03 ± 0.066
0.3704 µM	0.392 ± 0.039	0.863 ± 0.019	1.04 ± 0.014	1.11 ± 0.061	1.04 ± 0.022
1.111 µM	0.376 ± 0.056	0.738 ± 0.03	1.037 ± 0.0092	1 ± 0.034	0.989 ± 0.047
3.333 µM	0.318 ± 0.031	0.626 ± 0.015	0.982 ± 0.062	0.96 ± 0.057	0.963 ± 0.079
10 µM	0.22 ± 0.012	0.119 ± 0.0052	0.146 ± 0.016	0.422 ± 0.029	0.809 ± 0.039

Cc1[nH]c(/C=C2\C(=O)Nc3ccccc32)c(C)c1CCC(=O)O [Orantinib]
relative viability
Conditions	A204 [1]	HS729 [2]	KHOS-NP [3]	SW684 [4]	SW872 [5]
0.00017 µM	1.07 ± 0.04	1.07 ± 0.053	1.088 ± 0.0069	1.19 ± 0.053	1.1 ± 0.053
0.00051 µM	1.12 ± 0.014	1.09 ± 0.043	1.122 ± 0.0089	1.19 ± 0.086	1.12 ± 0.083
0.00152 µM	1.12 ± 0.073	1.08 ± 0.058	1.12 ± 0.012	1.23 ± 0.043	1.09 ± 0.036
0.00457 µM	1.09 ± 0.036	1.06 ± 0.043	1.12 ± 0.024	1.23 ± 0.039	1.1 ± 0.06
0.01372 µM	1.14 ± 0.026	1.04 ± 0.072	1.11 ± 0.018	1.18 ± 0.078	1.09 ± 0.045
0.04115 µM	1.086 ± 0.0063	1.04 ± 0.054	1.11 ± 0.037	1.18 ± 0.12	1.08 ± 0.03
0.1235 µM	1.13 ± 0.068	0.997 ± 0.057	1.11 ± 0.044	1.19 ± 0.091	1.06 ± 0.015
0.3704 µM	1.05 ± 0.043	0.966 ± 0.023	1.1 ± 0.03	1.16 ± 0.05	1.04 ± 0.024
1.111 µM	1.03 ± 0.052	0.923 ± 0.014	1.09 ± 0.034	1.12 ± 0.031	1.08 ± 0.03
3.333 µM	0.976 ± 0.019	0.923 ± 0.021	1.1 ± 0.043	1.05 ± 0.06	1.05 ± 0.037
10 µM	0.881 ± 0.03	0.889 ± 0.015	1.08 ± 0.046	0.967 ± 0.058	1.013 ± 0.0074

CC(=O)c1c(C)c2cnc(Nc3ccc(N4CCNCC4)cn3)nc2n(C2CCCC2)c1=O [Palbociclib]
relative viability
Conditions	A204 [1]	HS729 [2]	KHOS-NP [3]	SW684 [4]	SW872 [5]
0.00017 µM	1.05 ± 0.021	1.05 ± 0.034	1.12 ± 0.012	1.19 ± 0.033	1.11 ± 0.02
0.00051 µM	1.07 ± 0.047	1.02 ± 0.08	1.11 ± 0.02	1.2 ± 0.031	1.1 ± 0.025
0.00152 µM	1.07 ± 0.081	1.06 ± 0.029	1.124 ± 0.0041	1.24 ± 0.022	1.07 ± 0.041
0.00457 µM	1.08 ± 0.05	1.01 ± 0.089	1.1 ± 0.0084	1.241 ± 0.01	1.09 ± 0.017
0.01372 µM	1.03 ± 0.054	1.05 ± 0.053	1.13 ± 0.023	1.28 ± 0.035	1.07 ± 0.033
0.04115 µM	0.987 ± 0.072	0.965 ± 0.091	1.12 ± 0.012	1.21 ± 0.046	1.03 ± 0.052
0.1235 µM	0.808 ± 0.041	0.987 ± 0.055	1.11 ± 0.019	1.18 ± 0.021	0.968 ± 0.047
0.3704 µM	0.777 ± 0.062	0.984 ± 0.04	1.1 ± 0.024	1.11 ± 0.027	0.884 ± 0.064
1.111 µM	0.649 ± 0.059	0.844 ± 0.017	1.07 ± 0.05	1.05 ± 0.038	0.83 ± 0.056
3.333 µM	0.556 ± 0.011	0.849 ± 0.086	0.902 ± 0.077	0.933 ± 0.045	0.78 ± 0.05
10 µM	0.39 ± 0.035	0.933 ± 0.045	0.742 ± 0.056	0.7226 ± 0.0051	0.726 ± 0.0098
